# Experiments:
# Format in all cases: biochemical
# GSK3β = GSK3β (Homo sapiens, UniProt P49841); assay: GSK3β ATP depletion assay; details: ATP depletion assay; read-out: GSK3b IC50
# Outline: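 Human GSK3β (5 nM) preincubated 15 min with 10 μM biotinylated phospho-CREB peptide in pH 7.5 Tris buffer (15 mM MgCl2, 1 mM DTT, 0.1% BSA, 2.5% DMSO). Reaction started with 2 μM ATP and run to about 50% ATP depletion. Remaining ATP measured by KinaseGlo luminescence.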
# PIM1 = PIM1 (Homo sapiens, UniProt P11309); assay: Pim 1 AlphaScreen assay (high ATP); details: read-out: Pim1 IC50
# Description: (§1) Pim1, Pim2, Pim3 AlphaScreen Assay Pim 1, Pim 2 & Pim 3 AlphaScreen assays using high ATP (11-125×ATP Km) were used to determine the biochemical activity of the inhibitors. The activity of Pim 1, Pim 2, & Pim 3 is measured using a homogeneous bead based system quantifying the amount of phosphorylated peptide substrate resulting from kinase-catalyzed phosphoryl transfer to a peptide substrate. Compounds to be tested are dissolved in 100% DMSO and directly distributed to a white 384-well plate at […] per well. To start the reaction, 5 μl of 100 nM Bad peptide (Biotin-AGAGRSRHSSYPAGT —OH) and ATP (concentrations described below) in assay buffer (50 mM Hepes, pH=7.5, 5 mM MgCl2, 0.05% BSA, 0.01% Tween-20, 1 mM DTT) is added to each well. This is followed by the addition of 5 μl/well of Pim 1, Pim 2 or Pim 3 kinase in assay buffer (concentrations described below). Final assay concentrations (described below) are in 2.5% DMSO. The reactions are performed for ˜2 hours, then stopped by the addition of 10 μl of 0.75 μg/ml anti-phospho Ser/Thr antibody (Cell Signaling), 10 μg/ml Protein A AlphaScreen beads (Perkin Elmer), and 10 μg/ml streptavidin coated AlphaScreen beads in stop/detection buffer (50 mM EDTA, 95 mM Tris, pH=7.5, 0.01% Tween-20). The stopped reactions are incubated overnight in the dark. The phosphorylated peptide is detected via an […] initiated chemiluminescence/fluorescence cascade using the Envision plate reader (Perkin Elmer).
# (§2) IC50, the half maximal inhibitory concentration, represents the concentration of a test compound that is required for 50% inhibition of its target in vitro under the described assay conditions.
# PIM2 = PIM2 (Homo sapiens, UniProt Q9P1W9); assay: Pim 2 AlphaScreen assay (high ATP); details: read-out: Pim2 IC50
# Outline: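 This is a bead-based AlphaScreen run at high ATP (11-125× Km) with biotin-Bad peptide (100 nM in the substrate mix), in 50 mM Hepes pH 7.5, 5 mM MgCl2, 0.05% BSA, 0.01% Tween-20, 1 mM DTT and 2.5% DMSO final. After ~2 h the reaction was stopped with EDTA. Phospho-peptide was detected overnight with anti-phospho Ser/Thr antibody on Protein A and streptavidin beads, giving IC50.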
# PIM3 = PIM3 (Homo sapiens, UniProt Q86V86); assay: Pim 3 AlphaScreen assay (high ATP); details: read-out: Pim3 IC50
# Description: as §1, §2
# Chain of PIM2 (Q9P1W9 whole entry): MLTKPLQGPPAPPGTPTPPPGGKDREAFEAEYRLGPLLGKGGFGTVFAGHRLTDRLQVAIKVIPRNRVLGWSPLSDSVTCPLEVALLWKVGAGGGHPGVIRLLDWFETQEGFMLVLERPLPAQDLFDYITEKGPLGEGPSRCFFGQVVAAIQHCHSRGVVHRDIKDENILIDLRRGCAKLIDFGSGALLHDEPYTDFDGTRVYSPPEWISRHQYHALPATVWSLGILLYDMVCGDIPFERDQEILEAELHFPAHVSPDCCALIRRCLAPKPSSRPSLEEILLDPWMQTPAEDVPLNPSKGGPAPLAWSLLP
# Chain of GSK3β (P49841 whole entry, species assumed): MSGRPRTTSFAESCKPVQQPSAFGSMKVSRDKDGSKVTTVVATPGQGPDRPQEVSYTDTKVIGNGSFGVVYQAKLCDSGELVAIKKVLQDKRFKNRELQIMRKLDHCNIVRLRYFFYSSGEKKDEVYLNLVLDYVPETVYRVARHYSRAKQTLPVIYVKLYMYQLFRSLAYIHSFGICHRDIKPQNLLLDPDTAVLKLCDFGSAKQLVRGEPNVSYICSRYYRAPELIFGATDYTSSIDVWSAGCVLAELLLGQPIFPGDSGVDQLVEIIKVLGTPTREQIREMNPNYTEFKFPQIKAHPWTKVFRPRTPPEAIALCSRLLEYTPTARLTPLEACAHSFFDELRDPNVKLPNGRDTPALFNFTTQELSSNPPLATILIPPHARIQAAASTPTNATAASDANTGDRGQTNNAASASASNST
# Chain of PIM1 (P11309 whole entry): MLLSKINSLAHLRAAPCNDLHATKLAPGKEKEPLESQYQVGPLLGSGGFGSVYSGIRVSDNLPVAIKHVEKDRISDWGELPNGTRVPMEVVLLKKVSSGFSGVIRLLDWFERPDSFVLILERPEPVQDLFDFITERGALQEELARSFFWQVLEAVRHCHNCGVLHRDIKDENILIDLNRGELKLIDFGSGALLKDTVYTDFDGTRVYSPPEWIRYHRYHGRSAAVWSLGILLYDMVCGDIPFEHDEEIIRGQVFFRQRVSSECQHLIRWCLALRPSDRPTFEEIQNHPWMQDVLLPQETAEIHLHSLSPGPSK
SMILES,IC50 (GSK3β),IC50 (PIM1),IC50 (PIM2),IC50 (PIM3)
"C[C@]1(O)[C@H](O)C[C@H](c2ccncc2NC(=O)c2ccc(F)c(-c3c(F)cccc3F)n2)O[C@@H]1C1CC1 [Example 247, N-(4-((2R,4R,5S,6R)-6-cyclopropyl-4,5-dihydroxy-5-methyltetrahydro-2H-pyran-2-yl)pyridin-3-yl)-6-(2,6-difluorophenyl)-5-fluoropicolinamide]",1200 nM,4.01 nM,185 nM,103 nM
"C[C@@]1(O)[C@@H](O)C[C@@H](c2ccncc2NC(=O)c2ccc(F)c(-c3c(F)cccc3F)n2)O[C@H]1C1CC1 [Example 248, N-(4-((2S,4S,5R,6S)-6-cyclopropyl-4,5-dihydroxy-5-methyltetrahydro-2H-pyran-2-yl)pyridin-3-yl)-6-(2,6-difluorophenyl)-5-fluoropicolinamide]",1970 nM,92 nM,9280 nM,2270 nM
"C[C@@]1(O)[C@@H](O)C[C@@H](c2ccncc2NC(=O)c2nc(-c3c(F)cccc3F)ncc2N)O[C@H]1C1CC1 [Example 249, 5-amino-N-(4-((2S,4S,5R,6S)-6-cyclopropyl-4,5-dihydroxy-5-methyltetrahydro-2H-pyran-2-yl)pyridin-3-yl)-2-(2,6-difluorophenyl)pyrimidine-4-carboxamide]",6020 nM,989 nM,> 25000 nM,20900 nM
"O=C(Nc1cnccc1[C@@H]1C[C@H](O)[C@@H](O)C2(CC2)O1)c1ccc(F)c(-c2c(F)cccc2F)n1 [Example 250, 6-(2,6-difluorophenyl)-N-(4-((5S,7S,8R)-7,8-dihydroxy-4-oxaspiro[2.5]octan-5-yl)pyridin-3-yl)-5-fluoropicolinamide]",1040 nM,20.1 nM,3590 nM,499 nM
"Nc1cnc(-c2c(F)cccc2F)nc1C(=O)Nc1cnccc1[C@@H]1C[C@H](O)[C@@H](O)C2(CC2)O1 [Example 251, 5-amino-2-(2,6-difluorophenyl)-N-(4-((5S,7S,8R)-7,8-dihydroxy-4-oxaspiro[2.5]octan-5-yl)pyridin-3-yl)pyrimidine-4-carboxamide]",1110 nM,90.7 nM,9100 nM,1320 nM
"Nc1cnc(-c2c(F)cccc2F)nc1C(=O)Nc1cnccc1[C@H]1C[C@@H](O)[C@H](O)C2(CC2)O1 [Example 252, 5-amino-2-(2,6-difluorophenyl)-N-(4-((5R,7R,8S)-7,8-dihydroxy-4-oxaspiro[2.5]octan-5-yl)pyridin-3-yl)pyrimidine-4-carboxamide]",572 nM,20.3 nM,848 nM,252 nM
"O=C(Nc1cnccc1[C@H]1C[C@@H](O)[C@H](O)C2(CC2)O1)c1ccc(F)c(-c2c(F)cccc2F)n1 [Example 253, 6-(2,6-difluorophenyl)-N-(4-((5R,7R,8S)-7,8-dihydroxy-4-oxaspiro[2.5]octan-5-yl)pyridin-3-yl)-5-fluoropicolinamide]",273 nM,0.99 nM,79.5 nM,12.6 nM
"CC(C)(C)[C@@H]1O[C@H](c2ccncc2NC(=O)c2ccc(F)c(-c3c(F)cccc3F)n2)C[C@H](N)[C@H]1O [Example 254, N-(4-((2S,4S,5R,6S)-4-amino-6-(tert-butyl)-5-hydroxytetrahydro-2H-pyran-2-yl)pyridin-3-yl)-6-(2,6-difluorophenyl)-5-fluoropicolinamide]",4690 nM,0.78 nM,47.2 nM,16 nM
"CC(C)(C)[C@H]1O[C@@H](c2ccncc2NC(=O)c2ccc(F)c(-c3c(F)cccc3F)n2)C[C@@H](N)[C@@H]1O [Example 255, N-(4-((2R,4R,5S,6R)-4-amino-6-(tert-butyl)-5-hydroxytetrahydro-2H-pyran-2-yl)pyridin-3-yl)-6-(2,6-difluorophenyl)-5-fluoropicolinamide]",2190 nM,0.03 nM,1.7 nM,0.4 nM
"C[C@]1(O)[C@H](N)C[C@H](c2ccncc2NC(=O)c2ccc(F)c(-c3c(F)cccc3F)n2)O[C@@H]1C1CC1 [Example 256, N-(4-((2R,4R,5S,6R)-4-amino-6-cyclopropyl-5-hydroxy-5-methyltetrahydro-2H-pyran-2-yl)pyridin-3-yl)-6-(2,6-difluorophenyl)-5-fluoropicolinamide]",4620 nM,0.17 nM,6.1 nM,1.7 nM
"C[C@@]1(O)[C@@H](N)C[C@@H](c2ccncc2NC(=O)c2ccc(F)c(-c3c(F)cccc3F)n2)O[C@H]1C1CC1 [Example 257, N-(4-((2S,4S,5R,6S)-4-amino-6-cyclopropyl-5-hydroxy-5-methyltetrahydro-2H-pyran-2-yl)pyridin-3-yl)-6-(2,6-difluorophenyl)-5-fluoropicolinamide]",20000 nM,1.88 nM,173 nM,35.9 nM

# Other lines, results leading:
IC50 (GSK3β),IC50 (PIM1),IC50 (PIM2),IC50 (PIM3),SMILES
183 nM,0.04 nM,6.2 nM,0.5 nM,"CC[C@]1(O)[C@H](N)C[C@H](c2ccncc2NC(=O)c2ccc(F)c(-c3c(F)cc(OC)cc3F)n2)O[C@@H]1C [Example 258, N-(4-((2R,4R,5S,6R)-4-amino-5-ethyl-5-hydroxy-6-methyltetrahydro-2H-pyran-2-yl)pyridin-3-yl)-6-(2,6-difluoro-4-methoxyphenyl)-5-fluoropicolinamide]"
218 nM,0.03 nM,4.8 nM,0.4 nM,"CC[C@]1(O)[C@H](N)C[C@H](c2ccncc2NC(=O)c2ccc(F)c(-c3c(F)cc(C)cc3F)n2)O[C@@H]1C [Example 259, N-(4-((2R,4R,5S,6R)-4-amino-5-ethyl-5-hydroxy-6-methyltetrahydro-2H-pyran-2-yl)pyridin-3-yl)-6-(2,6-difluoro-4-methylphenyl)-5-fluoropicolinamide]"
1040 nM,0.34 nM,6 nM,3.6 nM,"CC(C)(C)[C@H]1O[C@@H](c2ccncc2NC(=O)c2nc(-c3c(F)cccc3F)ncc2N)C[C@@H](N)[C@@H]1O [Example 260, 5-amino-N-(4-((2R,4R,5S,6R)-4-amino-6-tert-butyl-5-hydroxytetrahydro-2H-pyran-2-yl)pyridin-3-yl)-2-(2,6-difluorophenyl)pyrimidine-4-carboxamide]"
5520 nM,0.11 nM,6.1 nM,1.2 nM,"C[C@]1(O)[C@H](N)C[C@H](c2ccncc2NC(=O)c2nc(-c3c(F)cccc3F)c(F)cc2N)O[C@@H]1C1CC1 [Example 261, 3-amino-N-(4-((2R,4R,5S,6R)-4-amino-6-cyclopropyl-5-hydroxy-5-methyltetrahydro-2H-pyran-2-yl)pyridin-3-yl)-6-(2,6-difluorophenyl)-5-fluoropicolinamide]"
2020 nM,2.15 nM,18.2 nM,18.1 nM,"C[C@]1(O)[C@H](N)C[C@H](c2ccncc2NC(=O)c2nc(-c3c(F)cccc3F)ncc2N)O[C@@H]1C1CC1 [Example 262, 5-amino-N-(4-((2R,4R,5S,6R)-4-amino-6-cyclopropyl-5-hydroxy-5-methyltetrahydro-2H-pyran-2-yl)pyridin-3-yl)-2-(2,6-difluorophenyl)pyrimidine-4-carboxamide]"
334 nM,1.26 nM,72.7 nM,23.1 nM,"C[C@]1(O)[C@H](N)C[C@H](c2ccncc2NC(=O)c2csc(-c3c(F)cccc3F)n2)O[C@@H]1C1CC1 [Example 263, N-(4-((2R,4R,5S,6R)-4-amino-6-cyclopropyl-5-hydroxy-5-methyltetrahydro-2H-pyran-2-yl)pyridin-3-yl)-2-(2,6-difluorophenyl)thiazole-4-carboxamide]"
1790 nM,0.11 nM,8.1 nM,2.4 nM,"Cc1cc(F)c(-c2nc(C(=O)Nc3cnccc3[C@H]3C[C@@H](N)[C@](C)(O)[C@@H](C4CC4)O3)ccc2F)c(F)c1 [Example 264, N-(4-((2R,4R,5S,6R)-4-amino-6-cyclopropyl-5-hydroxy-5-methyltetrahydro-2H-pyran-2-yl)pyridin-3-yl)-6-(2,6-difluoro-4-methylphenyl)-5-fluoropicolinamide]"
